In patent publication US8173645B2 (Takeda San Diego, Inc., priority 2007, dated 2012) one finds EC50 and Emax data, which are given here for 21 molecules.

The structures appear in SMILES notation.

This experiment has as its target T1, glucokinase (GK), residues 12-465 of the human enzyme (Homo sapiens, UniProt P35557).
T1 construct: I.D. No. 1 corresponds to residues 12-465 of glucokinase; made in house; host or cells: E. coli DH10b-Tlr
T1 sequence (P35557 with tags, fused parts or gaps isoform P35557-2): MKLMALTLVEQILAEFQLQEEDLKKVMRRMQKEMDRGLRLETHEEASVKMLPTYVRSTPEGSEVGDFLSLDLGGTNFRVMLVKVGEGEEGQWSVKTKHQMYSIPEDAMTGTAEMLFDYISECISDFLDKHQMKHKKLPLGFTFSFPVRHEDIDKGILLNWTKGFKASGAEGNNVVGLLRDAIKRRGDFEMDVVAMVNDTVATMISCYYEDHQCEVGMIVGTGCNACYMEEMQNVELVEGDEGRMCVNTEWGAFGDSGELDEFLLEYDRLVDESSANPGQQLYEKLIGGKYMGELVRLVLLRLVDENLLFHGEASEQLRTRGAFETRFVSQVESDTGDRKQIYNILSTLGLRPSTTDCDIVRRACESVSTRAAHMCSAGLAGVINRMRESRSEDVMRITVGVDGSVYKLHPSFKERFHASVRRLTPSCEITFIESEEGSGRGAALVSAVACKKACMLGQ
As to the kind of experiment: Enzymatic glucokinase activity assay (KinaseGlo luminescence, ATP consumption). The note with it: 5 μM ATP, 5 mM Glucose; for EC50: GK activation, Kact = concentration giving 50% of the maximal increase in GK activity, read-out: pKact; for Emax: calculated maximal gain in GK enzyme activity at a saturating concentration of the compound, read-out: % ACTmax. Type of experiment: biochemical. The source says:
The activity of compounds as glucokinase activators may be assayed in vitro, in vivo or in a cell line. Provided below is an enzymatic glucokinase activity assay.
Purified glucokinase may be obtained as follows. DNA encoding residues 12-465 of the full-length sequence of the human enzyme may be amplified by PCR and cloned into the HindIII and EcoRI sites of pFLAG-CTC (Sigma). SEQ. I.D. No. 1 corresponds to residues 12-465 of glucokinase.
The expression of recombinant glucokinase protein may be carried out by transformation and growth of DH10b-Tlr E. coli cells incorporating the (pFLAG-CTC) plasmid in LB media. Protein expression can be induced in this system by the addition of IPTG to the culture medium.
Recombinant protein may be isolated from cellular extracts by passage over Sepharose Q Fast Flow resin (Pharmacia). This partially purified GK extract may then be further purified by a second passage over Poros HQ 10 (Applied Biosystems). The purity of GK may be determined on denaturing SDS-PAGE gel. Purified GK may then be concentrated to a final concentration of 20.0 mg/ml. After flash freezing in liquid nitrogen, the proteins can be stored at −78° C. in a buffer containing 25 mM TRIS-HCl pH 7.6, 50 mM NaCl, and 0.5 mM TCEP.
The activation properties of compounds for GK may be determined using a black 384-well-plate format under the following reaction conditions: 25 mM Hepes pH 7.2, 25 mM NaCl, 10 mM MgCl2, 0.01% Brij35, 1 mM DTT, 5 μM ATP, 5 mM Glucose 2% DMSO. The amount of ATP consumed may be determined quantitatively by addition of equal volume of luciferase reagent (luciferase+beetle luciferin—KinaseGlo Luminescent Kinase Assay kit from Promega). The luminescence intensity may be measured by using the Analyst HT from LJL Biosystems.
The assay reaction may be initiated as follows: 4 μl of substrate mixture (12.5 μM ATP and 12.5 mM Glucose) was added to each well of the plate, followed by the addition of 2 μl of activator (2 fold serial dilutions for 11 data points for each activator) containing 10% DMSO. 4 μL of 1.25 nM GK solution may be added to initiate the reaction. The reaction mixture may then be incubated at room temperature for 60 min, and quenched and developed by addition of 10 μL of luciferase reagent. Luminescence intensities of the resulting reaction mixtures may be measured after a 10 min incubation at room temperature. The luminescence intensity may be measured by using the Analyst HT from LJL Biosystems.
pKact and % ACTmax values may be calculated by non-linear curve fitting of the compound concentrations and luminescence intensities to a standard inhibition/activation equation.

As for `O=C(Nc1nccs1)[C@H](CC1CCCCC1)N1CCN(S(=O)(=O)Cc2ccccc2)CC1=O` [Example 41, (S)-2-(4-(benzylsulfonyl)-2-oxopiperazin-1-yl)-3-cyclohexyl-N-(thiazol-2-yl)propanamide], the EC50 was no more than 631 nM and the Emax is 97.1 to 107%.
For `O=C(Nc1nccs1)[C@H](CC1CCCCC1)N1CCN(S(=O)(=O)c2ccc(Cl)cc2)CC1=O` [Example 43, (S)-2-(4-(4-chlorophenylsulfonyl)-2-oxopiperazin-1-yl)-3-cyclohexyl-N-(thiazol-2-yl)propanamide], the EC50 lay within 794 to 1260 nM and the Emax is 74.1 to 97%.
With `CN1CCOc2cc(S(=O)(=O)N3CCN([C@@H](CC4CCCCC4)C(=O)Nc4nccs4)C(=O)C3)ccc21` [Example 44, (S)-3-cyclohexyl-2-(4-(4-methyl-3,4-dihydro-2H-benzo[b][1,4]oxazin-7-ylsulfonyl)-2-oxopiperazin-1-yl)-N-(thiazol-2-yl)propanamide], the EC50 was no more than 631 nM and the Emax was 97.1 to 107%.
With `CC(=O)Nc1ccc(S(=O)(=O)N2CCN([C@@H](CC3CCCCC3)C(=O)Nc3nccs3)C(=O)C2)cc1` [Example 45, (S)-2-(4-(4-acetamidophenylsulfonyl)-2-oxopiperazin-1-yl)-3-cyclohexyl-N-(thiazol-2-yl)propanamide], the EC50 is no less than 3160 nM and the Emax is 97.1 to 107%.
For `COc1ccc(S(=O)(=O)N2CCN([C@@H](CC3CCCCC3)C(=O)Nc3nccs3)C(=O)C2)cc1` [Example 46, (S)-3-cyclohexyl-2-(4-(4-methoxyphenylsulfonyl)-2-oxopiperazin-1-yl)-N-(thiazol-2-yl)propanamide], the EC50 was 794 to 1260 nM and the Emax is 97.1 to 107%.
As to `Cc1nn(C)c(Cl)c1S(=O)(=O)N1CCN([C@@H](CC2CCCCC2)C(=O)Nc2nccs2)C(=O)C1` [Example 47, (S)-2-(4-(5-chloro-1,3-dimethyl-1H-pyrazol-4-ylsulfonyl)-2-oxopiperazin-1-yl)-3-cyclohexyl-N-(thiazol-2-yl)propanamide], the EC50 is 1580 to 2510 nM and the Emax is 97.1 to 107%.
With `Cc1nc(S(=O)(=O)N2CCN([C@@H](CC3CCCCC3)C(=O)Nc3nccs3)C(=O)C2)cn1C` [Example 48, (S)-3-cyclohexyl-2-(4-(1,2-dimethyl-1H-imidazol-4-ylsulfonyl)-2-oxopiperazin-1-yl)-N-(thiazol-2-yl)propanamide], the EC50 lay in the range of 794 to 1260 nM and the Emax was 108 to 119%.
For the molecule `O=C(O)c1cccc(S(=O)(=O)N2CCN([C@@H](CC3CCCCC3)C(=O)Nc3nccs3)C(=O)C2)c1` [Example 49, (S)-3-(4-(3-cyclohexyl-1-oxo-1-(thiazol-2-ylamino)propan-2-yl)-3-oxopiperazin-1-ylsulfonyl)benzoic acid], the EC50 is no less than 3160 nM and the Emax was 74.1 to 97%.
On the same counts, the results for `O=C(Nc1nccs1)[C@H](CC1CCCCC1)N1CCN(S(=O)(=O)c2csc3ccccc23)CC1=O` [Example 50, (S)-2-(4-(benzo[b]thiophen-3-ylsulfonyl)-2-oxopiperazin-1-yl)-3-cyclohexyl-N-(thiazol-2-yl)propanamide] are 794 to 1260 nM and no more than 74%.
The like results for `Cc1c(Cl)cccc1S(=O)(=O)N1CCN([C@@H](CC2CCCCC2)C(=O)Nc2nccs2)C(=O)C1` [Example 51, (S)-2-(4-(3-chloro-2-methylphenylsulfonyl)-2-oxopiperazin-1-yl)-3-cyclohexyl-N-(thiazol-2-yl)propanamide] were, in that order, 1580 to 2510 nM and 74.1 to 97%.
The like results for `N#Cc1ccc(S(=O)(=O)N2CCN([C@@H](CC3CCCCC3)C(=O)Nc3nccs3)C(=O)C2)c(Cl)c1` [Example 52, (S)-2-(4-(2-chloro-4-cyanophenylsulfonyl)-2-oxopiperazin-1-yl)-3-cyclohexyl-N-(thiazol-2-yl)propanamide] were, in that order, 1580 to 2510 nM and 74.1 to 97%.
As for `O=C(Nc1nccs1)[C@H](CC1CCCCC1)N1CCN(S(=O)(=O)c2ccc3c(c2)OCCO3)CC1=O` [Example 53, (S)-3-cyclohexyl-2-(4-(2,3-dihydrobenzo[b][1,4]dioxin-6-ylsulfonyl)-2-oxopiperazin-1-yl)-N-(thiazol-2-yl)propanamide], the EC50 lay within 794 to 1260 nM and the Emax is 74.1 to 97%.
Turning to `Cc1nc(C)c(S(=O)(=O)N2CCN([C@@H](CC3CCCCC3)C(=O)Nc3nccs3)C(=O)C2)s1` [Example 54, (S)-3-cyclohexyl-2-(4-(2,4-dimethylthiazol-5-ylsulfonyl)-2-oxopiperazin-1-yl)-N-(thiazol-2-yl)propanamide], the EC50 is no less than 3160 nM and the Emax is no less than 119%.
`O=C(Nc1nccs1)[C@H](CC1CCCCC1)N1CCN(S(=O)(=O)c2ccc(C(F)(F)F)cc2)CC1=O` [Example 55, (S)-3-cyclohexyl-2-(2-oxo-4-(4-(trifluoromethyl)phenylsulfonyl)piperazin-1-yl)N-(thiazol-2-yl)propanamide]: the EC50 is 794 to 1260 nM and the Emax is no more than 74%.
The like results for `O=C(Nc1nccs1)[C@H](CC1CCCCC1)N1CCN(S(=O)(=O)c2cc(Cl)ccc2Cl)CC1=O` [Example 56, (S)-3-cyclohexyl-2-(4-(2,5-dichlorophenylsulfonyl)-2-oxopiperazin-1-yl)-N-(thiazol-2-yl)propanamide] were, in that order, 794 to 1260 nM and 108 to 119%.
As for `O=C(Nc1nccs1)[C@H](CC1CCCCC1)N1CCN(S(=O)(=O)c2cc(Cl)cc(Cl)c2)CC1=O` [Example 57, (S)-3-cyclohexyl-2-(4-(3,5-dichlorophenylsulfonyl)-2-oxopiperazin-1-yl)-N-(thiazol-2-yl)propanamide], the EC50 is no more than 631 nM and the Emax was 74.1 to 97%.
The like results for `O=C(Nc1nccs1)[C@H](CC1CCCCC1)N1CCN(S(=O)(=O)c2ccc(F)cc2F)CC1=O` [Example 58, (S)-3-cyclohexyl-2-(4-(2,4-difluorophenylsulfonyl)-2-oxopiperazin-1-yl)-N-(thiazol-2-yl)propanamide] were, in that order, 794 to 1260 nM and 108 to 119%.
Consider `CC(C)S(=O)(=O)N1CCN([C@@H](CC2CCCCC2)C(=O)Nc2nccs2)C(=O)C1` [Example 59, (S)-3-cyclohexyl-2-(4-(isopropylsulfonyl)-2-oxopiperazin-1-yl)-N-(thiazol-2-yl)propanamide], for which the EC50 lay in the range of 1580 to 2510 nM and the Emax was no less than 119%.
For the molecule `Cc1oncc1S(=O)(=O)N1CCN([C@@H](CC2CCCCC2)C(=O)Nc2nccs2)C(=O)C1` [Example 60, (S)-3-cyclohexyl-2-(4-(5-methylisoxazol-4-ylsulfonyl)-2-oxopiperazin-1-yl)-N-(thiazol-2-yl)propanamide], the EC50 fell in the range of 794 to 1260 nM and the Emax is no more than 74%.
On to `O=C(Nc1nccs1)[C@H](CC1CCCCC1)N1CCN(S(=O)(=O)c2cccc(F)c2)CC1=O` [Example 61, (S)-3-cyclohexyl-2-(4-(3-fluorophenylsulfonyl)-2-oxopiperazin-1-yl)-N-(thiazol-2-yl)propanamide], for which the EC50 was no more than 631 nM and the Emax is 108 to 119%.
In the case of `N#Cc1cccc(S(=O)(=O)N2CCN([C@@H](CC3CCCCC3)C(=O)Nc3nccs3)C(=O)C2)c1` [Example 62, (S)-2-(4-(3-cyanophenylsulfonyl)-2-oxopiperazin-1-yl)-3-cyclohexyl-N-(thiazol-2-yl)propanamide], the EC50 lay in the range of 794 to 1260 nM and the Emax was 108 to 119%.
